Experimental data published in patent US11485701B2, “Insect repellent compounds and compositions, and methods thereof” (Iowa State University Research Foundation, Inc., priority 2016, dated 2022).
Structures can show the parent of a compound that is named as a salt.

Tested on: Northern house mosquitoes (Culex pipiens)
Assay: Short-term spatial repellency, static air repellency chamber
Type: in vivo
Settings: 0.1% (1/5 of 0.5%); 150 minutes; FIG. 6
Protocol: Northern house mosquitoes (Culex pipiens), a primary carrier of West Nile virus in eastern North America, were obtained from an established colony in the Medical Entomology Laboratory in the Department of Entomology at Iowa State University of Science and Technology, Ames Iowa. Mosquito rearing was performed by established protocols that are maintained by the Medical Entomology Laboratory. Repellency bioassays were performed with adult female mosquitoes that emerged 5-7 days previously. […] Mosquitoes, prior to testing, were held at 27° C., 80% relative humidity, and on a 16:8 hr light:dark photoperiod.
Repellency bioassays were performed using a static air repellency chamber, which has been described in various publications by the Pesticide Toxicology Laboratory at Iowa State University of Science and Technology, Ames, Iowa Briefly, a 9-cm×60-cm glass tube was used to monitor the distribution of mosquitoes at 15 min, 30 min, 60 min, 90 min, 120 min, and 150 min after introducing mosquitoes into the static air repellency chamber. […] One end of the spatial chamber contained a treated filter paper, whereas the other (untreated) end of the spatial chamber was not treated with compound. Controls contained filter papers treated with acetone, the solvent used to make the 0.5% solutions. Each end of the repellency chamber was secured with a 100-mm Petri dish using celluloid tape. After securing the petri dishes with corresponding treated or untreated filter papers to the spatial chamber, mosquitoes were anesthetized with carbon dioxide, and approximately 20 female mosquitoes were placed into each repellency chamber for one replicate. The opening of the spatial repellency chamber was secured with celluloid tape to prevent their escape. Chambers were oriented in opposite directions from the previous replicate to account for any directional effect. Four replicates were performed for data analysis for both the control and treatment groups.
Data for spatial repellency, the percentage repellency, is reported at each of the respective time points in the figures and tables mentioned below. The percentage spatial repellency is the examination of the distribution of mosquitoes and is calculated using the following equation: […]

SMILES	Short-term percentage repellency 150 min at 1/5 the concentration
CC(C)=CCCC(C)CCOC(=O)C1CCC1 (centres unmarked) [Citronellyl cyclobutanecarboxylate]	approximately 90%

Same assay, conditions: Culex pipiens, 0.25 h, read-out: Short-term Percentage repellency 15 min

SMILES	pest or weed control at 0.5 % [%]
Cc1ccc(C(C)C)c(OC(=O)C(F)F)c1 [Compound 2194, thymyl difluoroacetate]	20

Same assay, conditions: Culex pipiens, 0.25 h; filter paper, 1 mL of 0.5% solution in acetone, air-dried 15 min; 15 min after introduction; read-out: Short-term Percentage repellency 15 min

SMILES	pest or weed control at 0.5 % [%]
CC(C)=CCCC(C)CCOC=O (centres unmarked) [Compound 1089, citronellyl formate]	77.5
CC(C)=CCCC(C)CCOC(=O)C1CC(F)(F)C1 (centres unmarked) [Compound 3069, citronellyl 3,3-difluorocyclobutanecarboxylate]	2.5
Cc1cc(OC(=O)C(C)C)c(C(C)C)cc1Cl [Compound 1144B, chlorothymyl isobutyrate]	40
CC(=O)OCCOC(=O)C=Cc1ccccc1 [Compound 1105, 2-acetoxyethyl cinnamate]	30
CC(C)=CCCC(C)CCOC(=O)CC#N (centres unmarked) [Compound 2198, citronellyl cyanoacetate]	37.5
C=CC(C)(CCC=C(C)C)OC(=O)CC(C)C (centres unmarked) [Compound 2152, linalyl isovalerate]	15
CC1CCC(C(C)C)C(OC(=O)Cc2cccs2)C1 (centres unmarked) [Compound 2245, menthyl thiophen-2-ylacetate]	-35
CC1CCC(C(C)C)C(OC(=O)C2(C)CCC2)C1 (centres unmarked) [Compound 2210, menthyl 1-methylcyclobutanecarboxylate]	-5
Cc1cc(OC(=O)C2CC2)c(C(C)C)cc1Br [Compound 1075B, 4-bromothymyl cyclopropanecarboxylate]	47.5
C#CC(C)(C)OC(=O)CC(C)CCC=C(C)C (centres unmarked) [Compound 2171, 1,1-dimethylpropargyl citronellate]	37.5
CC(C)=CCCC(C)CC(=O)OCCO (centres unmarked) [Compound 1052, 2-hydroxyethyl citronellate]	77.5
CC(C)=CCC/C(C)=C\COC(=O)CC(C)C [Compound 2255B, neryl isovalerate]	7.5
CC(C)=CCCC(C)CCOC(=O)c1cccs1 (centres unmarked) [Compound 2180, Citronellyl thiophene-2-carboxylate]	0
CC(C)=CCCC(C)CCOC(=O)Cc1cccs1 (centres unmarked) [Compound 2244, citronellyl thiophen-2-ylacetate]	32.5
CC(C)=CCC/C(C)=C\COC(=O)C1(C)CCC1 [Compound 2108, neryl 1-methylcyclobutanecarboxylate]	60
C=C(C)CCOC(=O)CC(C)CCC=C(C)C (centres unmarked) [Compound 2168, isoprenyl citronellate]	27.5

Same assay, conditions: Culex pipiens, 1.5 h; filter paper, 1 mL of 0.5% solution in acetone, air-dried 15 min; 90 min; read-out: Short-term Percentage repellency 90 min

SMILES	pest or weed control at 0.5 % [%]
CC(C)=CCCC(C)CCOC=O (centres unmarked) [Compound 1089, citronellyl formate]	92.5
CC(C)=CCCC(C)CCOC(=O)C1CC(F)(F)C1 (centres unmarked) [Compound 3069, citronellyl 3,3-difluorocyclobutanecarboxylate]	20
Cc1cc(OC(=O)C(C)C)c(C(C)C)cc1Cl [Compound 1144B, chlorothymyl isobutyrate]	77.5
CC(=O)OCCOC(=O)C=Cc1ccccc1 [Compound 1105, 2-acetoxyethyl cinnamate]	15
CC(C)=CCCC(C)CCOC(=O)CC#N (centres unmarked) [Compound 2198, citronellyl cyanoacetate]	32.5
C=CC(C)(CCC=C(C)C)OC(=O)CC(C)C (centres unmarked) [Compound 2152, linalyl isovalerate]	82.5
CC1CCC(C(C)C)C(OC(=O)Cc2cccs2)C1 (centres unmarked) [Compound 2245, menthyl thiophen-2-ylacetate]	35
CC1CCC(C(C)C)C(OC(=O)C2(C)CCC2)C1 (centres unmarked) [Compound 2210, menthyl 1-methylcyclobutanecarboxylate]	62.5
Cc1cc(OC(=O)C2CC2)c(C(C)C)cc1Br [Compound 1075B, 4-bromothymyl cyclopropanecarboxylate]	32.5
C#CC(C)(C)OC(=O)CC(C)CCC=C(C)C (centres unmarked) [Compound 2171, 1,1-dimethylpropargyl citronellate]	67.5
CC(C)=CCCC(C)CC(=O)OCCO (centres unmarked) [Compound 1052, 2-hydroxyethyl citronellate]	92.5
CC(C)=CCC/C(C)=C\COC(=O)CC(C)C [Compound 2255B, neryl isovalerate]	75
CC(C)=CCCC(C)CCOC(=O)c1cccs1 (centres unmarked) [Compound 2180, Citronellyl thiophene-2-carboxylate]	37.5
CC(C)=CCCC(C)CCOC(=O)Cc1cccs1 (centres unmarked) [Compound 2244, citronellyl thiophen-2-ylacetate]	45
CC(C)=CCC/C(C)=C\COC(=O)C1(C)CCC1 [Compound 2108, neryl 1-methylcyclobutanecarboxylate]	90
C=C(C)CCOC(=O)CC(C)CCC=C(C)C (centres unmarked) [Compound 2168, isoprenyl citronellate]	62.5

Same assay, conditions: Culex pipiens, 2.5 h; filter paper, 1 mL of 0.5% solution in acetone, air-dried 15 min; 150 min; read-out: Short-term Percentage repellency 150 min

SMILES	pest or weed control at 0.5 % [%]
CC(C)=CCCC(C)CCOC=O (centres unmarked) [Compound 1089, citronellyl formate]	90
CC(C)=CCCC(C)CCOC(=O)C1CC(F)(F)C1 (centres unmarked) [Compound 3069, citronellyl 3,3-difluorocyclobutanecarboxylate]	27.5
Cc1cc(OC(=O)C(C)C)c(C(C)C)cc1Cl [Compound 1144B, chlorothymyl isobutyrate]	87.5
CC(=O)OCCOC(=O)C=Cc1ccccc1 [Compound 1105, 2-acetoxyethyl cinnamate]	10
CC(C)=CCCC(C)CCOC(=O)CC#N (centres unmarked) [Compound 2198, citronellyl cyanoacetate]	40
C=CC(C)(CCC=C(C)C)OC(=O)CC(C)C (centres unmarked) [Compound 2152, linalyl isovalerate]	92.5
CC1CCC(C(C)C)C(OC(=O)Cc2cccs2)C1 (centres unmarked) [Compound 2245, menthyl thiophen-2-ylacetate]	57.5
Cc1cc(OC(=O)C2CC2)c(C(C)C)cc1Br [Compound 1075B, 4-bromothymyl cyclopropanecarboxylate]	30
C#CC(C)(C)OC(=O)CC(C)CCC=C(C)C (centres unmarked) [Compound 2171, 1,1-dimethylpropargyl citronellate]	62.5
CC(C)=CCCC(C)CC(=O)OCCO (centres unmarked) [Compound 1052, 2-hydroxyethyl citronellate]	82.5
CC(C)=CCC/C(C)=C\COC(=O)CC(C)C [Compound 2255B, neryl isovalerate]	80
CC(C)=CCCC(C)CCOC(=O)c1cccs1 (centres unmarked) [Compound 2180, Citronellyl thiophene-2-carboxylate]	45
CC(C)=CCCC(C)CCOC(=O)Cc1cccs1 (centres unmarked) [Compound 2244, citronellyl thiophen-2-ylacetate]	55
CC(C)=CCC/C(C)=C\COC(=O)C1(C)CCC1 [Compound 2108, neryl 1-methylcyclobutanecarboxylate]	85
C=C(C)CCOC(=O)CC(C)CCC=C(C)C (centres unmarked) [Compound 2168, isoprenyl citronellate]	72.5

Same assay, conditions: filter paper treated with 0.1%; FIG. 6

SMILES	Short-term repellency at low concentration, in words
CC(C)=CCCC(C)CCOC(=O)C1CCC1 (centres unmarked) [Citronellyl cyclobutanecarboxylate]	significant levels of repellency
